Laboratory results: ChEMBL document CHEMBL3804824, “5-((3-Amidobenzyl)oxy)nicotinamides as Sirtuin 2 Inhibitors” (J Med Chem, 2016)

How the values were obtained:
in vitro [1] = settings: dog, MDCK
in vitro [2] = settings: dog, MDCK; remark: listed apart in the source
in vitro [3] = settings: dog, MDCK; remark: listed apart in the source
[4] = target: NAD-dependent protein deacylase sirtuin-5, mitochondrial (Homo sapiens, UniProt Q9NXA8)
in vitro [5] = settings: mouse, plasma
Description: Metabolic stability in mouse plasma assessed as parent compound remaining incubated for 6 hrs by LC-MS/MS analysis

in vitro [6] = settings: mouse, plasma; remark: listed apart in the source
Description: Metabolic stability in mouse plasma assessed as parent compound remaining incubated for 24 hrs by LC-MS/MS analysis

in vitro [7] = settings: human, plasma
Description: Metabolic stability in human plasma assessed as parent compound remaining incubated for 6 hrs by LC-MS/MS analysis

in vitro [8] = settings: human, plasma; remark: listed apart in the source
Description: Metabolic stability in human plasma assessed as parent compound remaining incubated for 24 hrs by LC-MS/MS analysis

in vitro [9] = settings: mouse, microsomes
Description: Half life in mouse liver microsomes at 1 uM by LC-MS/MS analysis in presence of NADPH

in vitro [10] = settings: human, microsomes
Description: Half life in human liver microsomes at 1 uM by LC-MS/MS analysis in presence of NADPH

[11] = target: T1, NAD-dependent protein deacetylase sirtuin-3, mitochondrial (Homo sapiens, UniProt Q9NTG7)
T1 sequence (Q9NTG7 whole entry): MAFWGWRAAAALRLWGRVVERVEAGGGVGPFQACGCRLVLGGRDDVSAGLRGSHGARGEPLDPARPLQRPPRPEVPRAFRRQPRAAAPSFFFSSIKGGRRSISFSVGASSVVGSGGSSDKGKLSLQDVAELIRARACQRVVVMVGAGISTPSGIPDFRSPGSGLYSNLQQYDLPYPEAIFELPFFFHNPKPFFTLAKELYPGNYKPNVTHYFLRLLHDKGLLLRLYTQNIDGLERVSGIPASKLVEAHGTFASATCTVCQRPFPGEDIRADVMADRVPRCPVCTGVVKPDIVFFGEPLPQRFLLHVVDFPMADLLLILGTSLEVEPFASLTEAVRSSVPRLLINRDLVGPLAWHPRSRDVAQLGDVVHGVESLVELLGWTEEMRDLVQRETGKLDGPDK

Chain of NAD-dependent protein deacylase sirtuin-5, mitochondrial (Q9NXA8 whole entry): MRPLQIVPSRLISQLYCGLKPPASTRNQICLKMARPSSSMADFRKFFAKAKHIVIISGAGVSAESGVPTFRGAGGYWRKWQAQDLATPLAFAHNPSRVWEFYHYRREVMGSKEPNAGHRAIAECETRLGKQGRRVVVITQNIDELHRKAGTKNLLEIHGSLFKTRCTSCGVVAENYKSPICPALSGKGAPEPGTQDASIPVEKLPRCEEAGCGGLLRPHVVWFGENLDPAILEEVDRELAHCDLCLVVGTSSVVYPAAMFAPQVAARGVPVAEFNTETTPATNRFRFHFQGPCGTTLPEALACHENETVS

Structure (SMILES) | Papp A→B at 3 h, 25 µM (in vitro [1]) [×10⁻⁶ cm/s] | Papp B→A at 3 h, 25 µM (in vitro [2]) [×10⁻⁶ cm/s] | recovery at 3 h, 25 µM (in vitro [3]) [%] | IC50 [4] [µM] | remaining at 6 h (in vitro [5]) [%] | remaining at 24 h (in vitro [6]) [%] | remaining at 6 h (in vitro [7]) [%] | remaining at 24 h (in vitro [8]) [%] | half-life at 1 µM (in vitro [9]) [h] | half-life at 1 µM (in vitro [10]) [h] | IC50 [11] [µM]
NC(=O)c1cncc(Oc2cccc3c(NC(=O)c4ccccc4)cccc23)c1 | 3.8 | 4.4 | > 90 | – | – | – | – | – | – | – | –
NC(=O)c1cncc(OCc2cccc(NC(=O)c3cccnc3)c2)c1 | 23 | 25 | > 90 | > 200 | 78 | 25 | 99 | 97 | 0.85 | 5.5 | –
NC(=O)c1cncc(OCc2cccc(NC(=O)C34CC5CC(CC(C5)C3)C4)c2)c1 | – | – | – | – | – | – | – | – | – | – | > 200
